Test system: Soybean (FG72 trait)
Experiment: in-field research trial of herbicidal treatment effect on soybean yield
Format: in vivo
Conditions: isoxaflutole 35 g ai/ha soil treatment pre-emergence, then one application of glyphosate 1060 g ai/ha plus ammonium sulfate 2850 g ai/ha; weed free check = 100%; averaged across four replications; moisture standardized; Fithian, Ill.
From the text: Soybean seed was secured for an in-field research trial. The soybean seed is genetically modified to be tolerant to applications of HPPD (4-hydroxyphenyl-pyruvate-dioxygenase) inhibiting herbicides (example: BALANCE PRO or isoxaflutole) and glyphosate (ROUNDUP ORIGINAL MAX). The trait is known as FG72.
The site was conventionally tilled and free of weeds at the time of planting. The soybean seed was planted in 30″ rows on Jun. 18, 2008. Broadcast spray treatments of a first herbicidal treatment composition comprising isoxaflutole were applied using a tractor mounted sprayer on Jun. 20, 2008. All areas of the field, including a weed-free check (control) that was not treated with isoxaflutole, were additionally treated on Jun. 20, 2008, with PURSUIT PLUS herbicide, a combination of 2.24% imazethapyr and 30.24% pendimethalin, available from BASF. The application was made prior to soybean and weed emergence.
To avoid any interference of weed effects on yield in the trial, the entire trial site was kept weed free for the entire growing season. […]
The trial was evaluated for herbicidal treatment effect on yield. […] Data was entered into and analyzed with ARM computer software. […] Treatment differences were determined using least significant differences (LSD, P=0.05).

CS(=O)(=O)c1cc(C(F)(F)F)ccc1C(=O)c1cnoc1C1CC1 [isoxaflutole, 5-cyclopropyl-4-(2-methylsulfonyl-4-trifluoromethylbenzoyl) isoxazole]
soybean seed yield as percent of the weed free check: 108.5%

— US20110201499A1, “Method of Improving Plant Yield of Soybeans by Treatment with Herbicides” (priority 2010, published 2011)
